Laboratory results taken from patent US20250064778A1, “GRANULES COMPRISING PROGERININ, AND SACHETS USING SAME” (PRG S&TECH INC., priority 2022, published 2025).

Legend:
[1] = Stability of spray-dried solid dispersions under storage for 2 weeks; assay type: physicochemical; settings: for Appearance / HPLC results Purity / XRPD: open
[2] = cited from earlier work
[3] = system: progeria-induced animal model; settings: cited from earlier work
[4] = system: progerin; settings: cited from earlier work
[5] = Excipient compatibility of progerinin; assay type: physicochemical; settings: mixed with HPMC E3, TPGS and potassium sorbate 1:10, 40° C./75% RH, 2 weeks

For CC1(C)Oc2cc3oc(=O)ccc3cc2C[C@@H]1OC/C=C/c1ccccc1 [progerinin, (7S)-(+)-8,8-dimethyl-7-(3-phenylallyloxy)-7,8-dihydro-6H-pyrano[3,2-g]chromen-2-one], the Appearance ([1]; 25° C./60% RH, after 1 week) was “White”, the “HPLC results Purity” value ([1]; 25° C./60% RH, after 1 week) was 99.85% and the XRPD ([1]; 25° C./60% RH, after 1 week) was “Unchanged”. For the same molecule, the “HPLC results Purity” value ([1]; 25° C./60% RH, after 2 weeks) was 99.85%, the XRPD ([1]; 25° C./60% RH, after 2 weeks) was “Unchanged” and the Appearance ([1]; 40° C./75% RH, after 1 week) was “White”. The “HPLC results Purity” value ([1]; 40° C./75% RH, after 1 week) was 99.85%, the XRPD ([1]; 40° C./75% RH, after 1 week) was “Unchanged” and the “HPLC results Purity” value ([1]; 40° C./75% RH, after 2 weeks) was 99.85%. For the same molecule, the XRPD ([1]; 40° C./75% RH, after 2 weeks) was “Unchanged”, the Initial purity ([1]; initial) was 99.85% and the “solubility in aqueous media” value ([2]; BCS criteria) was “low solubility”. For the same molecule, the solubility in water [2] was “close to zero”, the survival period [3] was “prolonging a survival period” and the suppressing progerin expression [4] was “excellent effects of suppressing progerin expression”. For the same molecule, the “compatibility with excipients (effect on the drug)” value [5] was “had no effect on the drug”.
